According to the NIST ThermoML archive (doi:10.1016/j.fluid.2015.04.017):

Test: xn = mol fraction of the nth substance listed
Details: 101 kPa, Liquid; for viscosity: Concentric cylinders viscometry; for mass density: Vibrating tube method

CCOC(=O)C(C)O (stereo not drawn) [DL-ethyl lactate] + Cc1ccccc1
Details	mass density [kg/m3]	viscosity [mPa·s]
288.15 K, x1 = 0.1001	887.622	0.6897
288.15 K, x1 = 0.2001	904.719	0.7894
288.15 K, x1 = 0.3	921.906	0.9136
288.15 K, x1 = 0.4	939.168	1.06
288.15 K, x1 = 0.4998	956.144	1.258
288.15 K, x1 = 0.6001	973.156	1.493
288.15 K, x1 = 0.7	990.077	1.795
288.15 K, x1 = 0.7999	1006.73	2.174
288.15 K, x1 = 0.9	1023.31	2.637
288.15 K, x1 = 1	1039.28	3.207
293.15 K, x1 = 0.1001	882.811	0.6502
293.15 K, x1 = 0.2001	899.769	0.7404
293.15 K, x1 = 0.3	916.845	0.8468
293.15 K, x1 = 0.4	934.015	0.9765
293.15 K, x1 = 0.4998	950.923	1.141
293.15 K, x1 = 0.6001	967.906	1.344
293.15 K, x1 = 0.7	984.738	1.597
293.15 K, x1 = 0.7999	1001.36	1.911
293.15 K, x1 = 0.9	1017.91	2.29
293.15 K, x1 = 1	1033.84	2.75
298.15 K, x1 = 0.1001	877.99	0.6148
298.15 K, x1 = 0.2001	894.808	0.6896
298.15 K, x1 = 0.3	911.77	0.7865
298.15 K, x1 = 0.4	928.847	0.9011
298.15 K, x1 = 0.4998	945.727	1.043
298.15 K, x1 = 0.6001	962.633	1.22
298.15 K, x1 = 0.7	979.381	1.434
298.15 K, x1 = 0.7999	995.963	1.695
298.15 K, x1 = 0.9	1012.47	2.01
298.15 K, x1 = 1	1028.39	2.39
303.15 K, x1 = 0.1001	873.16	0.5814
303.15 K, x1 = 0.2001	889.833	0.6488
303.15 K, x1 = 0.3	906.687	0.7345
303.15 K, x1 = 0.4	923.666	0.8343
303.15 K, x1 = 0.4998	940.433	0.9586
303.15 K, x1 = 0.6001	957.336	1.112
303.15 K, x1 = 0.7	974.002	1.295
303.15 K, x1 = 0.7999	990.547	1.517
303.15 K, x1 = 0.9	1007.14	1.782
303.15 K, x1 = 1	1022.92	2.097
308.15 K, x1 = 0.1001	868.317	0.5513
308.15 K, x1 = 0.2001	884.843	0.6122
308.15 K, x1 = 0.3	901.583	0.6876
308.15 K, x1 = 0.4	918.463	0.7756
308.15 K, x1 = 0.4998	935.187	0.8842
308.15 K, x1 = 0.6001	952.011	1.017
308.15 K, x1 = 0.7	968.604	1.176
308.15 K, x1 = 0.7999	985.109	1.367
308.15 K, x1 = 0.9	1001.53	1.592
308.15 K, x1 = 1	1017.42	1.858
313.15 K, x1 = 0.1001	863.457	0.5218
313.15 K, x1 = 0.2001	879.836	0.5761
313.15 K, x1 = 0.3	896.465	0.6439
313.15 K, x1 = 0.4	913.246	0.7225
313.15 K, x1 = 0.4998	929.878	0.8182
313.15 K, x1 = 0.6001	946.664	0.935
313.15 K, x1 = 0.7	963.183	1.073
313.15 K, x1 = 0.7999	979.648	1.239
313.15 K, x1 = 0.9	996.054	1.432
313.15 K, x1 = 1	1011.9	1.658
318.15 K, x1 = 0.1001	858.58	0.4943
318.15 K, x1 = 0.2001	874.813	0.5433
318.15 K, x1 = 0.3	891.323	0.6042
318.15 K, x1 = 0.4	908.008	0.6744
318.15 K, x1 = 0.4998	924.579	0.7599
318.15 K, x1 = 0.6001	941.286	0.8633
318.15 K, x1 = 0.7	957.74	0.985
318.15 K, x1 = 0.7999	974.163	1.13
318.15 K, x1 = 0.9	990.49	1.296
318.15 K, x1 = 1	1006.36	1.491
323.15 K, x1 = 0.1001	853.686	0.4712
323.15 K, x1 = 0.2001	869.771	0.5163
323.15 K, x1 = 0.3	886.165	0.5718
323.15 K, x1 = 0.4	902.749	0.6343
323.15 K, x1 = 0.4998	919.234	0.7115
323.15 K, x1 = 0.6001	935.886	0.8038
323.15 K, x1 = 0.7	952.282	0.912
323.15 K, x1 = 0.7999	968.653	1.038
323.15 K, x1 = 0.9	984.965	1.186
323.15 K, x1 = 1	1000.79	1.349
